Measurements taken from patent publication US20220323406A1, “METHODS AND COMPOSITIONS FOR DIFFERENTIATING STEM CELLS” (Massachusetts Institute of Technology, priority 2019, published 2022).

What was measured:
ENR+CD organoids [1] = test: Secondary (validation) screen: ATP (CTG) assay, 2.5-D 384-well ENR+CD organoids; assay type: cell-based, mouse; settings: 6-day ENR+CD, vs ENR+CD+DMSO
Experimental: (§1) Drugs were tested at a narrowed dose range around each treatment's identified optimal dose from the primary screen (4× below, 2× above and below).
(§2) High-throughput screening.
(§3) Secondary lysozyme secretion assay screen. Confirmatory secondary screening with primary hits was performed using the above 384-well plate method. The screen was conducted with 4-plate replicates with a base media of ENR+CD. Media was supplemented with compound at day 0 and day 3 (n=8 well replicates per dose) at four different doses: two-fold above, two-fold below, and four-fold below the optimal final dose for each respective treatment. Additionally, each plate carried a large number of ENR+DMSO or ENR+CD+DMSO (vehicle) control wells (n=100 for ATP, and n=25 for LYZ.NS and LYZ.S) for robust normalization. ATP, non-stimulated lysozyme activity and CCh-stimulated lysozyme activity was again measured and the collected data was again processed in a custom R-script, per primary screen with slight modification. Values were log10 transformed, and a plate-wise FC was calculated for each well based on the median value of ENR+CD+DMSO (vehicle) control wells to normalize plate to plate variability.

[2] = test system: ENR+CD organoids (ISC to Paneth cell differentiation); test: Primary screen: basal (non-stimulated) lysozyme secretion LYZ.NS, 2.5-D 384-well ENR+CD organoid differentiation; assay type: cell-based, mouse; settings: primary screen; for Z.LYZ.NS: standard z score
Text: as §2

[3] = test system: ENR+CD organoids (ISC to Paneth cell differentiation); test: Primary screen: CCh-stimulated lysozyme secretion LYZ.S, 2.5-D 384-well ENR+CD organoid differentiation; assay type: cell-based, mouse; settings: primary screen
Text: as §2

ENR+CD organoids [4] = test: Primary screen: ATP (CellTiter-Glo 3D, CTG) cell number/viability, 2.5-D 384-well ENR+CD organoids; settings: primary screen; for Z.CTG: standard z score;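 on all read-outs here: compounds given at plating and again on day 3 over a 6-day differentiation from ENR+CV stem-cell-enriched precursors, ATP measured on day 6, plate median as control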
[5] = test system: ENR+CD organoids (ISC to Paneth cell differentiation); test: Secondary (validation) screen: LYZ.NS basal lysozyme secretion, 2.5-D 384-well ENR+CD organoids; assay type: cell-based, mouse; settings: 6-day ENR+CD, vs ENR+CD+DMSO
Experimental: as §1, §2, §3

[6] = test system: ENR+CD organoids (ISC to Paneth cell differentiation); test: Secondary (validation) screen: LYZ.S CCh-stimulated lysozyme secretion, 2.5-D 384-well ENR+CD organoids; assay type: cell-based, mouse; settings: 6-day ENR+CD, vs ENR+CD+DMSO
Experimental: as §1, §2, §3

Compound: COc1cc(Nc2c(C#N)cnc3cc(OCCCN4CCN(C)CC4)c(OC)cc23)c(Cl)cc1Cl [Bosutinib (SKI-606), Bosutinib, reference compound]
- Dose.FC.CTG (ENR+CD organoids [1]; 0.02 uM): 0.216 log2 fold change
- Dose.FC.CTG (ENR+CD organoids [1]; 0.04 uM): 0.139 log2 fold change
- Dose.FC.CTG (ENR+CD organoids [1]; 0.08 uM): 0.082 log2 fold change
- Dose.FC.CTG (ENR+CD organoids [1]; […]): 0.128 log2 fold change
- Dose.FC.LYZ.NS ([2]; dose 0.08 uM): 0.213 log2 fold change
- Z.LYZ.NS (standard z score) ([2]; dose 0.08 uM): 1.858
- Dose.FC.LYZ.NS ([2]; dose 0.40 uM): 0.130 log2 fold change
- Z.LYZ.NS (standard z score) ([2]; dose 0.40 uM): 1.129
- Dose.FC.LYZ.NS ([2]; dose 2.00 uM): −0.049 log2 fold change
- Z.LYZ.NS (standard z score) ([2]; dose 2.00 uM): −0.425
- Dose.FC.LYZ.NS ([2]; dose 10.00 uM): −0.115 log2 fold change
- Z.LYZ.NS (standard z score) ([2]; dose 10.00 uM): −1.005
- Dose.FC.LYZ.S ([3]; dose 0.08 uM): 0.308 log2 fold change
- Dose.FC.LYZ.S ([3]; dose 0.40 uM): 0.208 log2 fold change
- Dose.FC.LYZ.S ([3]; dose 2.00 uM): −0.058 log2 fold change
- Dose.FC.LYZ.S ([3]; dose 10.00 uM): −0.223 log2 fold change
- Dose.FC.CTG (ENR+CD organoids [4]; dose 0.08 uM): 0.628 log2 fold change
- Dose.FC.CTG (ENR+CD organoids [4]; dose 0.40 uM): 0.302 log2 fold change
- Dose.FC.CTG (ENR+CD organoids [4]; dose 2.00 uM): −0.169 log2 fold change
- Dose.FC.CTG (ENR+CD organoids [4]; dose 10.00 uM): −0.668 log2 fold change
- Dose.FC.LYZ.NS ([5]; 0.02 uM): 0.133 log2 fold change
- Dose.FC.LYZ.NS ([5]; 0.04 uM): −0.067 log2 fold change
- Dose.FC.LYZ.NS ([5]; 0.08 uM): −0.070 log2 fold change
- Dose.FC.LYZ.NS ([5]; […]): 0.068 log2 fold change
- Dose.FC.LYZ.S ([6]; 0.02 uM): 0.103 log2 fold change
- Dose.FC.LYZ.S ([6]; 0.04 uM): −0.086 log2 fold change
- Dose.FC.LYZ.S ([6]; 0.08 uM): −0.072 log2 fold change
- Dose.FC.LYZ.S ([6]; […]): 0.007 log2 fold change

Compound: NC1(Cc2ccc(Cl)cc2)CCN(c2ncnc3[nH]ccc23)CC1 [CCT128930]
- Dose.FC.CTG (ENR+CD organoids [1]; 0.02 uM): −0.117 log2 fold change
- Z.CTG (ENR+CD organoids [1]; 0.02 uM): −1.054
- repSSMD.CTG (ENR+CD organoids [1]; 0.02 uM): −0.787
- Dose.FC.CTG (ENR+CD organoids [1]; 0.04 uM): 0.122 log2 fold change
- Z.CTG (ENR+CD organoids [1]; 0.04 uM): 1.101
- repSSMD.CTG (ENR+CD organoids [1]; 0.04 uM): 0.922
- Dose.FC.CTG (ENR+CD organoids [1]; 0.08 uM): 0.166 log2 fold change
- Z.CTG (ENR+CD organoids [1]; 0.08 uM): 1.494
- repSSMD.CTG (ENR+CD organoids [1]; 0.08 uM): 1.047
- Dose.FC.CTG (ENR+CD organoids [1]; […]): −0.088 log2 fold change
- Dose.FC.LYZ.NS ([2]; dose 0.08 uM): 0.323 log2 fold change
- Dose.FC.LYZ.NS ([2]; dose 0.40 uM): −0.018 log2 fold change
- Dose.FC.LYZ.NS ([2]; dose 2.00 uM): 0.073 log2 fold change
- Dose.FC.LYZ.NS ([2]; dose 10.00 uM): −0.150 log2 fold change
- Z.LYZ.NS ([2]; dose 0.08 uM): 2.811
- Z.LYZ.NS ([2]; dose 0.40 uM): −0.154
- Z.LYZ.NS ([2]; dose 2.00 uM): 0.633
- Z.LYZ.NS ([2]; dose 10.00 uM): −1.307
- Dose.FC.LYZ.S ([3]; dose 0.08 uM): 0.266 log2 fold change
- Dose.FC.LYZ.S ([3]; dose 0.40 uM): −0.007 log2 fold change
- Dose.FC.LYZ.S ([3]; dose 2.00 uM): 0.053 log2 fold change
- Dose.FC.LYZ.S ([3]; dose 10.00 uM): −0.201 log2 fold change
- Dose.FC.CTG (ENR+CD organoids [4]; dose 0.08 uM): 0.095 log2 fold change
- Dose.FC.CTG (ENR+CD organoids [4]; dose 0.40 uM): −0.025 log2 fold change
- Dose.FC.CTG (ENR+CD organoids [4]; dose 2.00 uM): 0.127 log2 fold change
- Dose.FC.CTG (ENR+CD organoids [4]; dose 10.00 uM): −0.175 log2 fold change
- Z.CTG (ENR+CD organoids [4]; dose 0.08 uM): 0.228
- Z.CTG (ENR+CD organoids [4]; dose 0.40 uM): −0.060
- Z.CTG (ENR+CD organoids [4]; dose 2.00 uM): 0.304
- Z.CTG (ENR+CD organoids [4]; dose 10.00 uM): −0.418
- Dose.FC.LYZ.NS ([5]; 0.02 uM): −0.241 log2 fold change
- Z.LYZ.NS ([5]; 0.02 uM): −1.927
- repSSMD.LYZ.NS ([5]; 0.02 uM): −2.551
- Dose.FC.LYZ.NS ([5]; 0.04 uM): −0.020 log2 fold change
- Z.LYZ.NS ([5]; 0.04 uM): −0.164
- repSSMD.LYZ.NS ([5]; 0.04 uM): −0.204
- Dose.FC.LYZ.NS ([5]; 0.08 uM): 0.031 log2 fold change
- Z.LYZ.NS ([5]; 0.08 uM): 0.248
- repSSMD.LYZ.NS ([5]; 0.08 uM): 0.366
- Dose.FC.LYZ.NS ([5]; […]): −0.160 log2 fold change
- Dose.FC.LYZ.S ([6]; 0.02 uM): −0.319 log2 fold change
- Z.LYZ.S ([6]; 0.02 uM): −2.445
- repSSMD.LYZ.S ([6]; 0.02 uM): −3.825
- Dose.FC.LYZ.S ([6]; 0.04 uM): −0.014 log2 fold change
- Z.LYZ.S ([6]; 0.04 uM): −0.108
- repSSMD.LYZ.S ([6]; 0.04 uM): −0.157
- Dose.FC.LYZ.S ([6]; 0.08 uM): 0.005 log2 fold change
- Z.LYZ.S ([6]; 0.08 uM): 0.041
- repSSMD.LYZ.S ([6]; 0.08 uM): 0.069
- Dose.FC.LYZ.S ([6]; […]): −0.217 log2 fold change
